Measurements from US11000525B2, “1-[2-(aminomethyl)benzyl]-2-thioxo-1,2,3,5-tetrahydro-4H-pyrrolo[3,2-d]pyrimidin-4-ones as inhibitors of myeloperoxidase” (AstraZeneca AB, priority 2014, dated 2021).
“Also recorded” adds a separate entry of the source.

Legend:
[1] = Plasma urate levels in healthy volunteers (clinical trials); assay type: in vivo, human; details: daily dose for 10 days, NCT00914303, FIG. 2
Protocol: Subjects received placebo or the indicated daily dose for 10 days, and the difference in plasma urate levels versus baseline was calculated. Each symbol represents one subject.

[2] = test system: MPO purified from the human cell line HL60; assay: MPO inhibition screen (Test A), ascorbate loss at 260 nm; assay type: biochemical; details: selectivity for MPO over TPO
Protocol: Methods for the determination of MPO inhibitory activity are disclosed in WO 02/090575. The pharmacological activity of compounds disclosed herein was tested in the following screen (Test A) in which the compounds were tested in the presence of ascorbate, which reacts with MPO-derived hypochlorous acid (HOCl) to form dehydro-ascorbate. The loss of ascorbate is followed by measuring absorbance at 260 nm.
Assay buffer: 100 μM diethyl triamine pentaacetic acid (DTPA) in buffer consisting of 10 mM Na2HPO4/NaH2PO4, 3 mM KCl in 140 mM NaCl, pH 7.4.
Enzyme solution: MPO purified from the human cell line HL60, 1.38 nM (final concentration 0.7 nM) and L-ascorbate, 100 μM (final concentration 50 μM) in Assay buffer
Absorbance was measured at 260 nm to obtain a compound blank value. After an additional 10 min, 40 μL of the substrate solution was added and the absorbance at 260 nm was recorded between 4 and 40 min to obtain kinetic readings of enzyme activity.

SMILES | Reduction of plasma urate (uric acid) levels versus baseline [1] | IC50 (TPO)/IC50 (MPO) [2]
CC(C)OCCn1c(=S)[nH]c(=O)c2[nH]ccc21 [AZD3241] | dose-dependent reduction of uric acid; also recorded: dose-dependently reduced urate levels | 
O=c1[nH]c(=S)n(Cc2ccccc2CNC2CCC2)c2cc[nH]c12 [Example 10, 1-{2-[(Cyclobutylamino)methyl]benzyl}-2-thioxo-1,2,3,5-tetrahydro-4H-pyrrolo[3,2-d]pyrimidin-4-one] |  | 1100
